Measurements published in publication PMC3469756 (Journal of medicinal chemistry, 2012).
Like-named read-outs stand apart in the source and are kept apart here.

Columns and labels:
PDE1C = details: PDE9 versus PDE1C, cited from earlier work
crystal structure = target: the molecule itself; assay: crystal structure

Row | Molecule | selectivity against PDE1C (PDE1C) | selectivity against PDE1C (PDE1C; listed as PF-04447943) | binding result (crystal structure)
1 | C[C@@H]1CN(Cc2ncccn2)C[C@H]1c1nc2c(cnn2C2CCOCC2)c(=O)[nH]1 [compound 9, 6-[(3S,4S)-4-methyl-1-(pyrimidin-2-ylmethyl)pyrrolidin-3-yl]-1-(tetrahydro-2H-pyran4-yl)-1,5-dihydro-4H-pyrazolo[3,4-d]pyrimidin-4-one] | 170 fold | about 170 fold | 
2 | PDE9A2 catalytic domain (residues 181-506) (domain or fragment, UniProt O76083-2 181-506, looked up) PTYPKYLLSPETIEALRKPTFDVWLWEPNEMLSCLEHMYHDLGLVRDFSINPVTLRRWLFCVHDNYRNNPFHNFRHCFCVAQMMYSMVWLCSLQEKFSQTDILILMTAAICHDLDHPGYNNTYQINARTELAVRYNDISPLENHHCAVAFQILAEPECNIFSNIPPDGFKQIRQGMITLILATDMARHAEIMDSFKEKMENFDYSNEEHMTLLKMILIKCCDISNEVRPMEVAEPWVDCLLEEYFMQSDREKSEGLPVAPFMDRDKVTKATAQIGFIKFVLIPMFETVTKLFPMVEEIMLQPLWESRDRYEELKRIDDAMKELQKK |  |  | binds
